Experimental findings from US12209102B2, “Heterocyclic compounds and uses thereof” (Kumquat Biosciences Inc., priority 2022, dated 2025) are described below.

In experiment [1] the target is T1, K-Ras WT (Homo sapiens, UniProt P01116).
T1 construct: made in house; host or cells: E. coli BL21 (DE3)
The experiment can be described thus: HTRF resonance energy transfer assay, K-Ras WT / SOS1 interaction. The conditions noted are these: HTRF assay of Example 5; read-out: IC50 against K-Ras WT. The class given is biochemical. In short, it runs like this: (§1)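 Compounds, tested in duplicate at 10 μM down to 0.01 μM, were read after about 10 min or more by HTRF as the 665/620 nm emission ratio (337 nm excitation) to derive IC50. This ratio reports FRET between an anti-GST-Eu donor on GST-K-Ras (wild-type or mutant) and an anti-6His-XL665 acceptor on His-hSOS1. Buffer: ~5 mM HEPES pH 7.4, 150 mM NaCl, 1 mM DTT, 0.05% BSA, 0.0025% Igepal.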
(In general: In TR-FRET formats the signal depends on donor and acceptor labels being close together.)

The test system of experiment [2] is A549 cells. Put plainly: Ras cellular assay, growth of cells with K-Ras G12S mutation (CellTiter-Glo). The class given is cell-based. As to conditions: Homo sapiens, cell growth, Example 9, G12S mutation, read-out: IC50 against A549 cells. In short, it runs like this: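 Growth inhibition IC50 values come from four-parameter fits of CellTiter-Glo luminescence, read about 6 days after compound addition. G12S-mutant A549 cells (e.g. 800/well, RPMI-1640 + 10% heat-inactivated FBS) were plated in tissue-culture-treated or ultra-low-attachment 384-well format. Dosing began the following day with serial dilutions, e.g. 10 points, 3-fold.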
In general terms: In ATP-based viability assays light output follows the ATP content of the culture.

Experiment [3] deals with T2, K-Ras G12V (Homo sapiens, UniProt P01116, G12V).
T2 construct: made in house; host or cells: E. coli BL21 (DE3)
T2 sequence (P01116 1-188 isoform P01116-2 G12V): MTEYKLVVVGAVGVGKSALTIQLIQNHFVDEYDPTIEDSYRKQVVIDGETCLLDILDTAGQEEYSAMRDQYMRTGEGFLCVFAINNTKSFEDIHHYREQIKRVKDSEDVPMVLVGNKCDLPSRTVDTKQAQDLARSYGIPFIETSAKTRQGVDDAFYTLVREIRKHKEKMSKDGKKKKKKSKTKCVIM
Put plainly: HTRF resonance energy transfer assay, K-Ras G12V / SOS1 interaction. The conditions noted are these: HTRF assay of Example 5; read-out: IC50 against K-Ras G12V. The experiment is classed as biochemical. Summed up: as §1

Experiment [4] addresses T3, K-Ras G12S (Homo sapiens, UniProt P01116, G12S).
T3 construct: made in house; host or cells: E. coli BL21 (DE3)
Put plainly: HTRF resonance energy transfer assay, K-Ras G12S / SOS1 interaction. As to conditions: HTRF assay of Example 5; read-out: IC50 against K-Ras G12S. The class given is biochemical. In short, it runs like this: as §1

The target in experiment [5] is T4, K-Ras G12D (Homo sapiens, UniProt P01116, G12D).
T4 construct: made in house; host or cells: E. coli BL21 (DE3)
T4 sequence (P01116 1-188 isoform P01116-2 G12D): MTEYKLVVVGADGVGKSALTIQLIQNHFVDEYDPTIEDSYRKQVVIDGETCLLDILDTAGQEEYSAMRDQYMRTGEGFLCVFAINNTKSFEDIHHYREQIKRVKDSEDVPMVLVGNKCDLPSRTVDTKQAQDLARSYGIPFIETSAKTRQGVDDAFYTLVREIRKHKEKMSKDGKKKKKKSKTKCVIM
Put plainly: HTRF resonance energy transfer assay, K-Ras G12D / SOS1 interaction. The experiment is classed as biochemical. As to conditions: HTRF assay of Example 5; read-out: IC50 against K-Ras G12D. In short, it runs like this: as §1

For experiment [6], the system named is SW620 cells. Put plainly: Ras cellular assay, growth of cells with K-Ras G12V mutation (CellTiter-Glo). The experiment is classed as cell-based. As to conditions: Homo sapiens, SW-620; cell growth, Example 9, G12V mutation; read-out: IC50 against SW620 cells. In short, it runs like this:
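IC50 values came from a four-parameter fit of CellTiter-Glo viability, read roughly 6 days after dosing with e.g. a 10-point threefold dilution series. G12V-mutant SW620 cells (e.g. 800 per well) had been plated the previous day in RPMI-1640/10% heat-inactivated FBS, on tissue culture-treated or ultra-low attachment plates.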

pIC50: −log10 of the molar value.

T3 sequence (P01116 1-188 isoform P01116-2 G12S): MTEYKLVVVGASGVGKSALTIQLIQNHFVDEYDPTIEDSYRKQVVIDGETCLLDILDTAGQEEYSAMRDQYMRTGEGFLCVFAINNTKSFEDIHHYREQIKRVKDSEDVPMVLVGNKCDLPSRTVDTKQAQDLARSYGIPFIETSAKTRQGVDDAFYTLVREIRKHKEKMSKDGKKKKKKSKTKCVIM
T1 sequence (P01116 1-188 isoform P01116-2): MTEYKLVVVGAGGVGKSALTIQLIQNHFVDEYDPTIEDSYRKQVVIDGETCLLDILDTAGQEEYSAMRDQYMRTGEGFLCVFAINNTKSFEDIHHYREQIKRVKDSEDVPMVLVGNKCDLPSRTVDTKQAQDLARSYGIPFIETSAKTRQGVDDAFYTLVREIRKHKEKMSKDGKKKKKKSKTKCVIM

Broadly, the pIC50 is −log10 of the IC50, conventionally taken in molar units. In the case of `CC1Oc2c(Cl)c(-c3ccc(F)c4sc(N)c(C#N)c34)c(F)c3nc(OC[C@@]45CCCN4C[C@H](F)C5)nc(c23)N(CC(F)F)C1C(C)(C)O` (stereo partly drawn) [Compound 655, 2-amino-4-(8-chloro-4-(2,2-difluoroethyl)-10-fluoro-2-(((2R,7aS)-2-fluorotetrahydro-1H-pyrrolizin-7a(5H)-yl)methoxy)-5-(2-hydroxypropan-2-yl)-6-methyl-5,6-dihydro-4H-[1,4]oxazepino[5,6,7-de]quinazolin-9-yl)-7-fluorobenzo[b]thiophene-3-carbonitrile], the pIC50 is above 7.00 in experiment [1]; above 5.30 in experiment [2]; above 7.00 in experiment [3]; above 7.00 in experiment [4]; above 7.00 in experiment [5]; above 5.30 in experiment [6].

As for `COC1CCCC1N1CCOc2c(Cl)c(-c3ccc(F)c4sc(N)c(C#N)c34)c(F)c3nc(OC[C@@]45CCCN4C[C@H](F)C5)nc1c23` (stereo partly drawn) [Compound 657, 2-amino-4-(8-chloro-10-fluoro-2-(((2R,7aS)-2-fluorotetrahydro-1H-pyrrolizin-7a(5H)-yl)methoxy)-4-(2-methoxycyclopentyl)-5,6-dihydro-4H-[1,4]oxazepino[5,6,7-de]quinazolin-9-yl)-7-fluorobenzo[b]thiophene-3-carbonitrile], the pIC50 in experiment [1] is above 7.00; in experiment [2] it was above 5.30; in experiment [3], above 7.00; in experiment [4] it was above 7.00; in experiment [5] it was above 7.00; in experiment [6] it was above 5.30.

As to `CC(O)CC1COc2c(Cl)c(-c3ccc(F)c4sc(N)c(C#N)c34)c(F)c3nc(OC[C@@]45CCCN4C[C@H](F)C5)nc(c23)N1CC(F)F` (stereo partly drawn) [Compound 659, 2-amino-4-(8-chloro-4-(2,2-difluoroethyl)-10-fluoro-2-(((2R,7aS)-2-fluorotetrahydro-1H-pyrrolizin-7a(5H)-yl)methoxy)-5-(2-hydroxypropyl)-5,6-dihydro-4H-[1,4]oxazepino[5,6,7-de]quinazolin-9-yl)-7-fluorobenzo[b]thiophene-3-carbonitrile], the pIC50 in experiment [1] was above 7.00; in experiment [2] it was above 5.30; in experiment [3], above 7.00; in experiment [4] it was above 7.00; in experiment [5] it was above 7.00; in experiment [6], above 5.30.

On to `COC1CC(N2CCOc3c(Cl)c(-c4ccc(F)c5sc(N)c(C#N)c45)c(F)c4nc(OC[C@@]56CCCN5C[C@H](F)C6)nc2c34)C1` (stereo partly drawn) [Compound 660, 2-amino-4-(8-chloro-10-fluoro-2-(((2R,7aS)-2-fluorotetrahydro-1H-pyrrolizin-7a(5H)-yl)methoxy)-4-(3-methoxycyclobutyl)-5,6-dihydro-4H-[1,4]oxazepino[5,6,7-de]quinazolin-9-yl)-7-fluorobenzo[b]thiophene-3-carbonitrile], for which the pIC50 in experiment [1] is above 7.00; in experiment [2], above 5.30; in experiment [3], above 7.00; in experiment [4], above 7.00; in experiment [5], above 7.00; in experiment [6] it was above 5.30.

For the compound `N#Cc1c(N)sc2c(F)ccc(-c3c(Cl)c4c5c(nc(OC[C@@]67CCCN6C[C@H](F)C7)nc5c3F)N(C3CCC(NC(=O)C(F)F)C3)CCO4)c12` (stereo partly drawn) [Compound 673, N-(3-(9-(2-amino-3-cyano-7-fluorobenzo[b]thiophen-4-yl)-8-chloro-10-fluoro-2-(((2R,7aS)-2-fluorotetrahydro-1H-pyrrolizin-7a(5H)-yl)methoxy)-5,6-dihydro-4H-[1,4]oxazepino[5,6,7-de]quinazolin-4-yl)cyclopentyl)-2,2-difluoroacetamide], the pIC50 in experiment [1] was above 7.00; in experiment [2], above 5.30; in experiment [3], above 7.00; in experiment [4], above 7.00; in experiment [5], above 7.00; in experiment [6] it was above 5.30.

On to `N#Cc1c(N)sc2c(F)ccc(-c3c(Cl)c4c5c(nc(OC[C@@]67CCCN6C[C@H](F)C7)nc5c3F)N(C3CCC(C#N)C3)CCO4)c12` (stereo partly drawn) [Compound 684, 2-amino-4-(8-chloro-4-(3-cyanocyclopentyl)-10-fluoro-2-(((2R,7aS)-2-fluorotetrahydro-1H-pyrrolizin-7a(5H)-yl)methoxy)-5,6-dihydro-4H-[1,4]oxazepino[5,6,7-de]quinazolin-9-yl)-7-fluorobenzo[b]thiophene-3-carbonitrile], for which the pIC50 was above 7.00 in experiment [1]; above 5.30 in experiment [2]; above 7.00 in experiment [3]; above 7.00 in experiment [4]; above 7.00 in experiment [5]; above 5.30 in experiment [6].

With `N#Cc1c(N)sc2c(F)ccc(-c3c(Cl)c4c5c(nc(OC[C@@]67CCCN6C[C@H](F)C7)nc5c3F)N(C3CCN(CC(F)F)C3)CCO4)c12` (stereo partly drawn) [Compound 693, 2-amino-4-(8-chloro-4-(1-(2,2-difluoroethyl)pyrrolidin-3-yl)-10-fluoro-2-(((2R,7aS)-2-fluorotetrahydro-1H-pyrrolizin-7a(5H)-yl)methoxy)-5,6-dihydro-4H-[1,4]oxazepino[5,6,7-de]quinazolin-9-yl)-7-fluorobenzo[b]thiophene-3-carbonitrile], the pIC50 in experiment [1] is above 7.00; in experiment [2], above 5.30; in experiment [3] it was above 7.00; in experiment [4], above 7.00; in experiment [5], above 7.00; in experiment [6], above 5.30.

Regarding `N#Cc1c(N)sc2c(F)ccc(-c3c(Cl)c4c5c(nc(OC[C@@]67CCCN6C[C@H](F)C7)nc5c3F)N(C3CCN(C(=O)C5CC5C#N)CC3)CCO4)c12` (stereo partly drawn) [Compound 703, 2-amino-4-(8-chloro-4-(1-(2-cyanocyclopropane-1-carbonyl)piperidin-4-yl)-10-fluoro-2-(((2R,7aS)-2-fluorotetrahydro-1H-pyrrolizin-7a(5H)-yl)methoxy)-5,6-dihydro-4H-[1,4]oxazepino[5,6,7-de]quinazolin-9-yl)-7-fluorobenzo[b]thiophene-3-carbonitrile], the pIC50 in experiment [1] is above 7.00; in experiment [2] it was above 5.30; in experiment [3], above 7.00; in experiment [4], above 7.00; in experiment [5], above 7.00; in experiment [6], above 5.30.

For the compound `CC1(O)CC(N2CCOc3c(Cl)c(-c4ccc(F)c5sc(N)c(C#N)c45)c(F)c4nc(OC[C@@]56CCCN5C[C@H](F)C6)nc2c34)C1` (stereo partly drawn) [Compound 708, 2-amino-4-(8-chloro-10-fluoro-2-(((2R,7aS)-2-fluorotetrahydro-1H-pyrrolizin-7a(5H)-yl)methoxy)-4-(3-hydroxy-3-methylcyclobutyl)-5,6-dihydro-4H-[1,4]oxazepino[5,6,7-de]quinazolin-9-yl)-7-fluorobenzo[b]thiophene-3-carbonitrile], the pIC50 in experiment [1] is above 7.00; in experiment [2] it was above 5.30; in experiment [3], above 7.00; in experiment [4], above 7.00; in experiment [5], above 7.00; in experiment [6], above 5.30.

In the case of `N#Cc1c(N)sc2c(F)ccc(-c3c(Cl)c4c5c(nc(OC[C@@]67CCCN6C[C@H](F)C7)nc5c3F)N(C3CC5CCC3N5)CCO4)c12` (stereo partly drawn) [Compound 733, 4-(4-(7-azabicyclo[2.2.1]heptan-2-yl)-8-chloro-10-fluoro-2-(((2R,7aS)-2-fluorotetrahydro-1H-pyrrolizin-7a(5H)-yl)methoxy)-5,6-dihydro-4H-[1,4]oxazepino[5,6,7-de]quinazolin-9-yl)-2-amino-7-fluorobenzo[b]thiophene-3-carbonitrile], the pIC50 in experiment [1] is above 7.00; in experiment [2], above 5.30; in experiment [3], above 7.00; in experiment [4] it was above 7.00; in experiment [5], above 7.00; in experiment [6], above 5.30.

With `N#Cc1c(N)sc2c(F)ccc(-c3c(Cl)c4c5c(nc(OC[C@@]67CCCN6C[C@H](F)C7)nc5c3F)N(C3CC(N)C3)CCO4)c12` (stereo partly drawn) [Compound 734, 2-amino-4-(4-(3-aminocyclobutyl)-8-chloro-10-fluoro-2-(((2R,7aS)-2-fluorotetrahydro-1H-pyrrolizin-7a(5H)-yl)methoxy)-5,6-dihydro-4H-[1,4]oxazepino[5,6,7-de]quinazolin-9-yl)-7-fluorobenzo[b]thiophene-3-carbonitrile], the pIC50 was above 7.00 in experiment [1]; above 5.30 in experiment [2]; above 7.00 in experiment [3]; above 7.00 in experiment [4]; above 7.00 in experiment [5]; above 5.30 in experiment [6].
